Laboratory results from US20160237045A1, “SUBSTITUTED PHENYLALANINE DERIVATIVES” (BAYER PHARMA AKTIENGESELLSCHAFT, priority 2013, published 2016).
Structures can show the parent of a compound that is named as a salt.

How the values were obtained:
plasma = assay: Determination of anticoagulatory activity: activated partial thromboplastin time (aPTT) in plasma; conditions: in vitro in human and animal plasma (species of Table B not stated); C.K. Prest kit; 37° C., 3 minutes incubation
Procedure: a.4) Determination of Anticoagulatory Activity
The anticoagulatory activity of the test substances is determined in vitro in human and animal plasma (for example mouse, rat, rabbit, pig and dog plasma). To this end, blood is drawn off in a mixing ratio of sodium citrate/blood of 1:9 using a 0.11 molar sodium citrate solution as receiver. Immediately after the blood has been drawn off, it is mixed thoroughly and centrifuged at about 4000 g for 15 minutes. The supernatant is pipetted off.
The activated partial thromboplastin time (aPTT) is determined in the presence of varying concentrations of test substance or the corresponding solvent using a commercial test kit (C.K. Prest from Diagnostica Stago). The test compounds are incubated with the plasma and the PTT reagent (cephalin, kaolin) at 37° C. for 3 minutes. Coagulation is then started by addition of a 25 mM aqueous calcium chloride solution, and the time when coagulation occurs is determined. The concentration of test substance which brings about a 1.5-fold extension of the aPTT is determined.

human factor XIa = target: T1, human factor XIa (Homo sapiens, UniProt P03951); assay: Measurement of FXIa inhibition (fluorogenic peptide substrate Boc-Glu(OBzl)-Ala-Arg-AMC); type: biochemical; conditions: factor XIa from Kordia 0.45 nM; 15 min preincubation; 30 min at 22° C.; fluorescence of AMC
T1 construct: purchased Kordia
T1 sequence (P03951 388-625 limits assumed): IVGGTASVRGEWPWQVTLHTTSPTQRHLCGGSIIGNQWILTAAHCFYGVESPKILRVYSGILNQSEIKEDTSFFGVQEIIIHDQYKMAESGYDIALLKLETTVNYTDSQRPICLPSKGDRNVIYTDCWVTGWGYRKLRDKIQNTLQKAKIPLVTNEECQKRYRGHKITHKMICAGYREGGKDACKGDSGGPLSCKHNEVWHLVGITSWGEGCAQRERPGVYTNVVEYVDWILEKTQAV
T1 sequence (P03951 19-387 partner limits assumed): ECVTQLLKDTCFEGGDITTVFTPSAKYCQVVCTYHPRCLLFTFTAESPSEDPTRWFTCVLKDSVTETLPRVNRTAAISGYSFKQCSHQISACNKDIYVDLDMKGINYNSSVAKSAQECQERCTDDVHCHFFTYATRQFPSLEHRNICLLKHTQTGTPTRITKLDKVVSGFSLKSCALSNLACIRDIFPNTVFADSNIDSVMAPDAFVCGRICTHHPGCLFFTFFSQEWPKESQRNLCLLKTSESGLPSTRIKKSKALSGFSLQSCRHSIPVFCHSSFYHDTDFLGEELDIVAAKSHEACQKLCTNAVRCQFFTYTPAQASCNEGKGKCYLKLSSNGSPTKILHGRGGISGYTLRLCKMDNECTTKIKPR
Procedure: a.1) Measurement of FXIa Inhibition
The factor XIa inhibition of the substances according to the invention is determined using a biochemical test system which utilizes the reaction of a peptidic factor XIa substrate to determine the enzymatic activity of human factor XIa. Here, factor XIa cleaves from the peptic factor XIa substrate the C-terminal aminomethylcoumarin (AMC), the fluorescence of which is measured. The determinations are carried out in microtitre plates.
Test substances are dissolved in dimethyl sulphoxide and serially diluted in dimethyl sulphoxide (3000 μM to 0.0078 μM; resulting final concentrations in the test: 50 μM to 0.00013 μM). In each case 1 μl of the diluted substance solutions is placed into the wells of white microtitre plates from Greiner (384 wells). Subsequently, the following are added successively: 20 μl of assay buffer (50 mmol/l Tris buffer pH 7.4; 100 mmol/l sodium chloride; 5 mmol/l calcium chloride; 0.1% bovine serum albumin) and 20 μl of factor XIa from Kordia (0.45 nM in assay buffer). After 15 min of incubation, the enzyme reaction is started by addition of 20 μl of the factor XIa substrate Boc-Glu(OBzl)-Ala-Arg-AMC dissolved in assay buffer (10 μM in assay buffer) from Bachem, the mixture is incubated at room temperature (22° C.) for 30 min and fluorescence is then measured (excitation: 360 nm, emission: 460 nm). The measured emissions of the test batches with test substance are compared to those of control batches without test substance (only dimethyl sulphoxide instead of test substance in dimethyl sulphoxide), and IC50 values are calculated from the concentration/activity relationships.

IC50 (human factor XIa): 0.7 nM
SMILES: CCN(CC)C(=O)c1ccccc1-c1ccc(C[C@H](NC(=O)[C@H]2CC[C@H](CN)CC2)C(=O)Nc2ccc(-c3nn[nH]n3)cc2)cc1 [Example 3, 4′-[(2S)-2-({[trans-4-(Aminomethyl)cyclohexyl]carbonyl}amino)-3-oxo-3-{[4-(2H-tetrazol-5-yl)phenyl]amino}propyl]-N,N-diethylbiphenyl-2-carboxamide hydrochloride]
aPTT (concentration of test substance which brings about a 1.5-fold extension of the aPTT) (plasma): 0.12 µmol/L
